This is an account of results in patent US8716279B2, “Pharmaceutical compositions of clonazepam and method of use thereof” (Jazz Pharmaceuticals, Inc., priority 2006, dated 2014).

The nature of data set [1]: Human pharmacokinetic, safety and tolerability study (oral, intravenous, intranasal cross-over). The settings on record: metabolite after 1 mg clonazepam. Here is the method:
The human pharmacokinetics, safety, and tolerability of the clonazepam compositions of the present invention formulated for intranasal delivery for therapeutic applications are evaluated using standard clinical procedures. Clonazepam compositions formulated for intranasal delivery are provided, for example, for application by the participants to intranasal mucosa.
A primary objective of initial studies in humans is to determine and compare pharmacokinetic profiles of three dosage forms of clonazepam: oral, i.v., and intranasal, following single administration. An example of such a study in humans is a cross-over study performed in 12 healthy male volunteers. Plasma and urine level of clonazepam and 7-amino-clonazepam are determined, for example, using HPLC and UV detection. […] Further the initial studies in humans are used to determine local tolerability of intranasal formulation using questionnaire and the Visual Analog Scale (VAS). VAS is a validated instrument that has been used in numerous studies to quantify subjective opening of the nasal passages. In addition, cognitive, sleepiness and mood effects are evaluated using questionnaires and scales (see, e.g., Example 10 below). Further, attention and vigilance may be evaluated using, for example, LEEDS Psychomotor Multiple Choice Reaction Time (MCRT) testing.
A human pharmacokinetic study was carried out as described in Example 8.
15 young, healthy male volunteers received a single dose of 1 mg clonazepam by oral, intravenous and intranasal routes in a three-period cross-over design.

The nature of data set [2]: Spray pattern of solvent matrices from Pfeiffer unit-dose devices. It counts as physicochemical. The settings on record: 100 μL, Pfeiffer unit-dose device, 20-25° C. The protocol:
(§1) Fourteen representative solvent matrices used for clonazepam formulations were tested for spray pattern and compared with water. The solvent mixtures were made up, spiked with minute amounts of Coomassie Brilliant Blue Dye and 100 μL were subsequently filled into Pfeiffer unit-dose devices (Pfeiffer of America, Princeton, N.J.). To measure the spray pattern, the devices were actuated below a sheet of paper that was located 3 cm above the spray nozzle. All measurements were made at ambient room temperature (20-25° C.). The smallest (Dmin) and the largest (Dmax) diameter of the blue pattern formed on the sheet of paper were measured and the results used to calculate the Dmax/Dmin ratio, the area of the pattern and the average spray angle. The plume area at 3 cm was calculated using the equation for the area of an ellipse using the half of the two diameters as the ellipse radii. Viscosity of all formulations was measured using Brookfield DV-I viscometer (Brookfield Engineering Laboratories, Inc., Middleboro, Mass.).

Data set [3] can be described thus: Viscosity of solvent matrices. It counts as physicochemical. Conditions: for measured viscosity: Gilmont falling ball viscometer. Here is the method:
as §1
As weather may dictate substantially different conditions of use, the effect of temperature on viscosity was determined. A Gilmont falling ball viscometer was filled with diethylene glycol monoethyl ether and calibrated for several hours at each temperature.

For the molecule `Nc1ccc2c(c1)C(c1ccccc1Cl)=NCC(=O)N2` [7-Amino-clonazepam], the “mean AUCt” value in data set [1] (intranasal route) was 16.9 ng·h/mL; in data set [1] (intravenous route), “approximately 30 ng·h/mL”; in data set [1] (oral route) it was “approximately 30 ng·h/mL”. Further, the “mean Cmax” value in data set [1] (intranasal route, 24-hour sampling) is on record as 1.17 ng/mL; in data set [1] (intravenous route), “approximately 2 ng/mL”; in data set [1] (oral route) it was “approximately 2 ng/mL”.

`O` [Water]: in data set [2], the “Plume area at 3 cm (cm^2)” value was found to be 15.52 cm^2 and the “Ratio Dmax/Dmin” value is listed as 1.10. Besides, the “Avg. viscosity (cP)” value in data set [3] (Brookfield DV-I viscometer, solvent matrix without clonazepam) is 1.0 cP.

Turning to `CCOCCOCCO` [diethylene glycol monoethyl ether, Diethylene glycol monoethyl ether], the measured viscosity in data set [3] (8° C.) is reported as 5.4 cP; in data set [3] (23° C.), 3.8 cP; in data set [3] (40° C.) it was 3.1 cP; in data set [3] (−17° C.), 6.6 cP.
